Values of other authors, collected in patent publication US7569547B2, “Inhibiting furin with polybasic peptides” (Board of Supervisors of Louisiana State University and …, priority 2001, dated 2009).
No end group written: not given here.

What was measured:
furin [1] = molecular target: T1, furin (Homo sapiens, UniProt P09958); details: Lu et al. 1993; cited from earlier work
furin [2] = molecular target: T1, furin; details: literature; read-out: Ki against furin; cited from earlier work
PC7 = molecular target: T2, PC7 (Homo sapiens, UniProt Q16549); details: Zhong et al. 1999; read-out: Ki against PC7; cited from earlier work
T2 sequence (Q16549 142-785): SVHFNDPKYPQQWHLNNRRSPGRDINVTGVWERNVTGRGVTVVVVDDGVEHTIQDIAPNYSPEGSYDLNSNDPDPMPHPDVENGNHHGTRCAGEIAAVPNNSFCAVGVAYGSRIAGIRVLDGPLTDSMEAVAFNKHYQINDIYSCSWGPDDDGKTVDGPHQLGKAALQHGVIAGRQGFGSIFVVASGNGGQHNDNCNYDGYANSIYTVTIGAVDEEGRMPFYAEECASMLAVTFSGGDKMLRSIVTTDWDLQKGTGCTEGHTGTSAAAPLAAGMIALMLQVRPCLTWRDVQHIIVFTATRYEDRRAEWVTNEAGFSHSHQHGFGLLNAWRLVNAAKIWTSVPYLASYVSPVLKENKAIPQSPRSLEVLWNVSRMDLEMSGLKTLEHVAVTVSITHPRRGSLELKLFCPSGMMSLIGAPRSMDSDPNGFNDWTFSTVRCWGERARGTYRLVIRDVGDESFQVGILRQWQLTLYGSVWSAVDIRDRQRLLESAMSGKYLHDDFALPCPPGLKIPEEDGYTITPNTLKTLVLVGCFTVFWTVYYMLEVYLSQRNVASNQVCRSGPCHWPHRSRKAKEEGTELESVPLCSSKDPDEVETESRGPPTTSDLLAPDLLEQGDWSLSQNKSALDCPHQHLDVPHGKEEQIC

T1 sequence (P09958 108-794): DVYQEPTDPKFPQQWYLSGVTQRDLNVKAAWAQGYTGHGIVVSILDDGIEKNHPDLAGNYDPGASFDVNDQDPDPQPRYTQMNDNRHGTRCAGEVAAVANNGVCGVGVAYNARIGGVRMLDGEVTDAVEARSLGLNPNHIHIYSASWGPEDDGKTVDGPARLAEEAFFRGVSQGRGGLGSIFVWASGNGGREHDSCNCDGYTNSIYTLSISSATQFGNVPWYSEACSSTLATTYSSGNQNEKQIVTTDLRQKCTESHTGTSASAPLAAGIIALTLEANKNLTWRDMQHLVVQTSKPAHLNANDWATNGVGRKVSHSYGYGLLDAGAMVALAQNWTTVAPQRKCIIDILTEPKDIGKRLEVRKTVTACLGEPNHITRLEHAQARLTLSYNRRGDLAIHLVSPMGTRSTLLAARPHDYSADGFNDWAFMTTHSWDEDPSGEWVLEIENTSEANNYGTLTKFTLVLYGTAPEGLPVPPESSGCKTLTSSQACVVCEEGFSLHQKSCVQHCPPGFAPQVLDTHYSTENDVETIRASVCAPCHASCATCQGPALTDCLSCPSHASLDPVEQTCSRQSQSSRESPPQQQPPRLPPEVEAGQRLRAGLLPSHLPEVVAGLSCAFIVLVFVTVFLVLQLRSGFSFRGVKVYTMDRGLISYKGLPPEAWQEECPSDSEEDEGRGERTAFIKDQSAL

Row | Substance | equilibrium constant (furin [1]) [M⁻¹] | Ki (furin [2]) [µM] | Ki (PC7) [µM]
1 | Arg^15-Lys^17-Arg^18 turkey ovomucoid third domain: third domain of turkey ovomucoid engineered (KPACTLE^19→KPRCKRE^19) to increase specificity towards furin (not fully specified; ends and bridges not checked) | 1.1e+07 | – | –
2 | EQRLLKRAKR | – | 0.08 | 0.006
3 | QQVAKRRTKR | – | – | ~0.5
